Experimental data reported in paper PMC3961306, “Comparison of the Cancer Gene Targeting and Biochemical Selectivities of All Targeted Kinase Inhibitors Approved for Clinical Use” (PLoS ONE, 2014).
Like-named read-outs stand apart in the source and are kept apart here.

What was measured:
Assay in all cases: Kinase profiling in a biochemical assay panel (mobility shift assays and ELISA), %-inhibition at 1 μM; selectivity entropy
[1] = target: T1, panel of more than 300 wild-type and mutant kinases (313 kinase panel) (Homo sapiens, UniProt Q12852)
T1 sequence (Q12852 1-859): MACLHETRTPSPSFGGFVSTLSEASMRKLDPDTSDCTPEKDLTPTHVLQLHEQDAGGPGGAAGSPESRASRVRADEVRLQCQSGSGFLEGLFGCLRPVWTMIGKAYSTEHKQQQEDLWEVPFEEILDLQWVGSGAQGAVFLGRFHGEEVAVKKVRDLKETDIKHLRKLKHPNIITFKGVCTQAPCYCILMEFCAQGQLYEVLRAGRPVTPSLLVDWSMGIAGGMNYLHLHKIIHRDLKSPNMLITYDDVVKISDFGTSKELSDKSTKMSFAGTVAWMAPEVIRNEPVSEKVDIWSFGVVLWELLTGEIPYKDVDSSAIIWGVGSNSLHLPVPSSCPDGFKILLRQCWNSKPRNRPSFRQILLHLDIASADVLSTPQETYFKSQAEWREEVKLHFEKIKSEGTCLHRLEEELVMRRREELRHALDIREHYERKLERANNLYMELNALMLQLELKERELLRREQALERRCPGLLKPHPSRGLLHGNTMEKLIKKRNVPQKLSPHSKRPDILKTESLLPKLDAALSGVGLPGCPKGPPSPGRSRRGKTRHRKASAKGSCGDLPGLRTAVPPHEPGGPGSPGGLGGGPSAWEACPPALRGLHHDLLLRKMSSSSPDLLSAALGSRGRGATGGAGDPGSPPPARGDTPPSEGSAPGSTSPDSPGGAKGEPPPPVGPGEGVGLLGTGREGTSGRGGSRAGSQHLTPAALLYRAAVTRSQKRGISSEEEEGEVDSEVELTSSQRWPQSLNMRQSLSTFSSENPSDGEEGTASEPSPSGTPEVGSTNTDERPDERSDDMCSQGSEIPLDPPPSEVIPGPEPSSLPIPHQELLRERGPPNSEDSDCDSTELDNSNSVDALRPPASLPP

[2] = target: panel of more than 300 wild-type and mutant kinases (313 kinase panel) (Homo sapiens, UniProt O75116); conditions: kinase ROCK2; 1 μM
[3] = target: panel of more than 300 wild-type and mutant kinases (313 kinase panel) (Homo sapiens, UniProt Q16654); conditions: kinase PDHK4; 1 μM
[4] = target: panel of more than 300 wild-type and mutant kinases (313 kinase panel) (Homo sapiens, UniProt P49761); conditions: kinase CLK3; compound at 1 μM
[5] = target: panel of more than 300 wild-type and mutant kinases (313 kinase panel) (Homo sapiens, UniProt O94804)
[6] = target: panel of more than 300 wild-type and mutant kinases (313 kinase panel) (Homo sapiens, UniProt Q13627)
[7] = target: panel of more than 300 wild-type and mutant kinases (313 kinase panel) (Homo sapiens, UniProt P49759); conditions: kinase CLK1; 1 μM compound
[8] = target: T2, panel of more than 300 wild-type and mutant kinases (313 kinase panel) (Homo sapiens, UniProt Q96PY6); conditions: kinase NEK1; 1 μM
T2 sequence (Q96PY6 1-1258): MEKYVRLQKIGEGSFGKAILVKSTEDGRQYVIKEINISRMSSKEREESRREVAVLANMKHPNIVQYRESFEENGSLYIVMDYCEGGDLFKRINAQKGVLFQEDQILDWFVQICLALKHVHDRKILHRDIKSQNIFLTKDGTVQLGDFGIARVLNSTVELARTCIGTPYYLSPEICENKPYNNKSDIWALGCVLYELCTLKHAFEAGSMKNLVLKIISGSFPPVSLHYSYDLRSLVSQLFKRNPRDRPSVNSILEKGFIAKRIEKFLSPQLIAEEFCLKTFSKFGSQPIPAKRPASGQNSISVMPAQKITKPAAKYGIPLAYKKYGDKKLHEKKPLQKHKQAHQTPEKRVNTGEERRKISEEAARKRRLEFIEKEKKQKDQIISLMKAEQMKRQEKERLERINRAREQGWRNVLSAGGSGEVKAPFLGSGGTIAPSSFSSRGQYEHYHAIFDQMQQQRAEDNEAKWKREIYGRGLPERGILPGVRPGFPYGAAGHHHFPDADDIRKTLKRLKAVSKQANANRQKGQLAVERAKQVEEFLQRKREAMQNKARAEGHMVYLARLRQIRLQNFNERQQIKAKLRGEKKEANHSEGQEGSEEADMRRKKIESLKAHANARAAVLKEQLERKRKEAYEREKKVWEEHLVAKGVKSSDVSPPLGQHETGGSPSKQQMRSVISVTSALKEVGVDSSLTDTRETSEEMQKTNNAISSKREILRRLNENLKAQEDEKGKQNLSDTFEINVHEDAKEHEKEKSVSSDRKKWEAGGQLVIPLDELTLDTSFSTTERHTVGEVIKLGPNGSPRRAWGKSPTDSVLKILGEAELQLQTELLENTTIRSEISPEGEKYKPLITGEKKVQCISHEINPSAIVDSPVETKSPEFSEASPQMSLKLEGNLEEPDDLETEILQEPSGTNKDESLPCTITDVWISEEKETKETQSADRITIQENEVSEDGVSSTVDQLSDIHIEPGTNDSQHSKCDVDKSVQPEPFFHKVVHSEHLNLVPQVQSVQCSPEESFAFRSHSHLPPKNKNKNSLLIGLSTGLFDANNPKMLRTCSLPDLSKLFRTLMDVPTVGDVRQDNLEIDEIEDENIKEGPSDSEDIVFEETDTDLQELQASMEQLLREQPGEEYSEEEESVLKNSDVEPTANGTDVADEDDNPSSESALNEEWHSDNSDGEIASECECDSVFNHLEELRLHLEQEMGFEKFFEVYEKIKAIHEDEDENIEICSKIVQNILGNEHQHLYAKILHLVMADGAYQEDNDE

[9] = kinase DYRK1A, compound at 1 μM

panel of more than 300 wild-type and mutant kinases (313 kinase panel) (Homo sapiens, UniProt P49759), sequence (P49759 whole entry, change not shown): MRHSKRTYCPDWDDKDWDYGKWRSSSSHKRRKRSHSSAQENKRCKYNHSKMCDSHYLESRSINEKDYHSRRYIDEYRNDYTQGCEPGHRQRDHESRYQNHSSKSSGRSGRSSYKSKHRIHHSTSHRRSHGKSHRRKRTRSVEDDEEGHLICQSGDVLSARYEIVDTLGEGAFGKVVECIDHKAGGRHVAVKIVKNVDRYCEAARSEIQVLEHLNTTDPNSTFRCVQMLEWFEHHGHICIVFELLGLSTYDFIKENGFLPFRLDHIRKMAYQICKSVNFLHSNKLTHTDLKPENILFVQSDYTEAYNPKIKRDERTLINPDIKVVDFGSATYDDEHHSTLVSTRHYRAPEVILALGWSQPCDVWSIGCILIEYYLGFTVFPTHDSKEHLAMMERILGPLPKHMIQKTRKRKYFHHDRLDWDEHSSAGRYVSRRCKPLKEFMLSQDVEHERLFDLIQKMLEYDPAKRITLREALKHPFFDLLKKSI
panel of more than 300 wild-type and mutant kinases (313 kinase panel) (Homo sapiens, UniProt P49761), sequence (P49761 whole entry, change not shown): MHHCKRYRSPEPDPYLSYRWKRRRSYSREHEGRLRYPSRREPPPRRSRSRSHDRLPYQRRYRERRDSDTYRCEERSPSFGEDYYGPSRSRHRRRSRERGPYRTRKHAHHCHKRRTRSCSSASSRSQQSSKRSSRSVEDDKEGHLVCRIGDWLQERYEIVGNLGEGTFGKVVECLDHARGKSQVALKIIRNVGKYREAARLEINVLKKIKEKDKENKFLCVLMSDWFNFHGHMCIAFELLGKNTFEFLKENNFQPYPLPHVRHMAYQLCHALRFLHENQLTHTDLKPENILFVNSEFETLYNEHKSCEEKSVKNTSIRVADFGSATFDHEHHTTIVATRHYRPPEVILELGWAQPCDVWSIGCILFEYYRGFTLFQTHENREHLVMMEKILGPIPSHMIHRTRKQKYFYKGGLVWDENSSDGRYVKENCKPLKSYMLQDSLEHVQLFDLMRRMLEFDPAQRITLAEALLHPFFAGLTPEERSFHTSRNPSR
panel of more than 300 wild-type and mutant kinases (313 kinase panel) (Homo sapiens, UniProt O94804), sequence (O94804 whole entry, change not shown): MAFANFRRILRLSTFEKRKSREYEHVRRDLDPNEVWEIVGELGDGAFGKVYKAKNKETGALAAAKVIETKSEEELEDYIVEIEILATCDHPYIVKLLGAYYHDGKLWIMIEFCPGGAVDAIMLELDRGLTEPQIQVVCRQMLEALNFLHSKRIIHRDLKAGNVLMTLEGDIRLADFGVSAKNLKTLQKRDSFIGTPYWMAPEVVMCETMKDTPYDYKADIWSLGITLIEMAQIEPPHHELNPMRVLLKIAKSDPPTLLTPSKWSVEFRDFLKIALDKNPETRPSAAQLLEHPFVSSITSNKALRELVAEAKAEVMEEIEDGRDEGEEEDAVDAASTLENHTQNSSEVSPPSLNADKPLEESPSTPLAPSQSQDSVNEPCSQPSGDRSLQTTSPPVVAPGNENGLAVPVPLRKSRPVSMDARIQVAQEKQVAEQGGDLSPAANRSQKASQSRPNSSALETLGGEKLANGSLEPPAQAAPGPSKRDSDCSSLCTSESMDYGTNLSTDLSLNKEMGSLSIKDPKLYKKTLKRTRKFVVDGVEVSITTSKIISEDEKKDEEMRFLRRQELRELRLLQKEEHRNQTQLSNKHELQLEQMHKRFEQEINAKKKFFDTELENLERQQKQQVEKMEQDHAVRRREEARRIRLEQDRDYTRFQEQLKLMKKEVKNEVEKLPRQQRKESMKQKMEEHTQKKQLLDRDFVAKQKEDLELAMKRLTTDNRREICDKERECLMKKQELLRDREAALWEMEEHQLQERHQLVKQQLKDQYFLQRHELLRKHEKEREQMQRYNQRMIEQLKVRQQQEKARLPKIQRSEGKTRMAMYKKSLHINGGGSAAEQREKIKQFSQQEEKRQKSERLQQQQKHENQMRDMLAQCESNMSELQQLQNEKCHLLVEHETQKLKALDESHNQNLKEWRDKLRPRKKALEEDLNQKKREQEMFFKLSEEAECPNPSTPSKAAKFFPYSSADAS

Structure (SMILES) | %-inhibition of DLK ([1]; kinase DLK, compound at 1 μM) [%] | %-inhibition of ROCK2 [2] [%] | %-inhibition of PDHK4 [3] [%] | %-inhibition of CLK3 [4] [%] | %-inhibition of LOK ([5]; kinase LOK, compound at 1 μM) [%] | %-inhibition of DYRK1A [6, 9] [%] | %-inhibition, CLK1 [7] [%] | %-inhibition of NEK1 [8] [%] | %-inhibition of DLK ([1]; 1 µM) [%] | %-inhibition of LOK ([5]; 1 µM) [%] | %-inhibition of DYRK1A [6] [%]
CNC(=O)c1cc(Oc2ccc(NC(=O)Nc3ccc(Cl)c(C(F)(F)F)c3)c(F)c2)ccn1 [regorafenib] | -13 | 2.65 | -1.61 | -15 | 80 | -15 | 38 | -7 | – | – | –
C[C@@H](Oc1cc(-c2cnn(C3CCNCC3)c2)cnc1N)c1c(Cl)ccc(F)c1Cl [crizotinib] | 86 | 4.25 | -3.76 | -5 | 98 | -13 | 13 | 2.24 | – | – | –
Cc1cn(-c2cc(NC(=O)c3ccc(C)c(Nc4nccc(-c5cccnc5)n4)c3)cc(C(F)(F)F)c2)cn1 [nilotinib] | – | -27 | -4.31 | -10 | – | – | 81 | -23 | 1.43 | -18 | -6.52
COc1cc2nccc(Oc3ccc(NC(=O)C4(C(=O)Nc5ccc(F)cc5)CC4)cc3)c2cc1OC [cabozantinib] | 36 | 15 | 3.76 | -1.24 | 96 | -5 | 7 | -4.23 | – | – | –
